Tests used:
[1] = design: method as in PMID 18584053; conditions: cited from earlier work
[2] = BSA-conjugated monosaccharides and cell-based assays; relative to L-fucose; cited from earlier work
Excerpt: Previous studies reported the potential of lectins as drug carriers to specific sites of action based on their ability to selectively bind to specific sugar moieties of targeted cells. In addition, lectins could promote drug targeting into or across the cell barriers through vesicular transport. […] As also shown in Fig. 4, it is quite evident that the internalized OL is stable at all concentration tested further supporting the notion that this peptide is likely internalized into the cellular endosome but not the lysosomes.

[3] = system: hCMEC/D3 cells; experiment: Cellular uptake/internalization of FAM-labelled peptide (lysate fluorescence normalized to protein; fluorescence imaging); assay type: in vitro ADME, human; conditions: 3 h
Procedure: All experiments were performed on human brain microvascular endothelial cell line (hCMEC/D3; Millipore Sigma, Massachusetts, US, cat# SCC066), an established and well characterized model of human BBB in vitro [11, 15, 16]. Cells (2.5 × 10^3/cm^2; passages 29–32) were cultured on sterile flasks, 96-well plates (for cell viability) and chamber slides (for immunofluorescence imaging) previously coated with Matrigel in HEPES buffered basal endothelial medium (EBM2) supplemented with various growth factors and 5% FBS using Lonza EGM2 MV BulletKit™ [15]. Following 80–90% confluence, cells were subjected to experimental conditions as listed below with serum concentration reduced to 1% FBS. Culture medium’s composition was adjusted (EBM2 medium buffered with HEPES and 1% BSA with no growth factors) to determine the effects of pH and serum (%; protein binding) on the cellular uptake of FAM-OL peptide. Basic pH was maintained with addition of 1 N sodium hydroxide to the medium, while acidic pH was established by addition of phosphoric acid. Cells were lysed with RIPA buffer at the end of treatment with OL peptide and the florescence intensity was measured using BioTek Synergy2 Multimode microplate reader using cellular lysates from cells treated with 0.1% DMSO as controls at 490/520 nm. […]

[4] = system: mice; design: method as in PMID 18584053; conditions: cited from earlier work

## odorranalectin [OL]
[1]
  Immunogenicity: low immunogenicity
[2]
  Binding to N-acetyl-d-galactosamine: to a lesser degree
  Binding to galactose: to a lesser degree
[3]; hCMEC/D3, 10-100 µg/mL, 37 °C, media 1% FBS, 0.1% DMSO, fluorescence imaging / lysate fluorescence 490/520 nm normalized per µg protein (BCA), N = 4-5
  Concentration dependence of cellular uptake: increased linearly
[3]; hCMEC/D3, 37 °C, 1% FBS, total cell lysate fluorescence normalized per µg protein, side by side, P < 0.01
  Cellular uptake compared to scramble peptide at identical concentrations: two to threefolds higher
[4]
  Toxicity profile in mice: low toxicity profile
